IC50 data for 16 compounds are collected here from patent publication US20250223259A1, “PROTEASE INHIBITORS FOR TREATING OR PREVENTING CORONAVIRUS INFECTION” (Merck Sharp & Dohme LLC, priority 2022, published 2025).

The assay has as its target SARS2 coronavirus 3CL protease (Severe acute respiratory syndrome coronavirus 2 (2019-nCoV) (SARS-CoV-2), UniProt P0DTD1). Nature of the assay: SARS2 Coronavirus 3CL Protease Assay (FRET). As to conditions: SARS2 3CLPro FRET assay; 5 nM enzyme, 30 min pre-incubation with compound, 15 uM peptide substrate, 4 h room temperature. The assay is classed as biochemical.

As a reminder, the IC50 is the midpoint of a concentration-inhibition curve. As to `COC(=O)NC1(C(=O)N2CC3(CCCCC3)C[C@H]2C(=O)N[C@@H](CCC(C)(F)F)C(=O)C(=O)NC2CC2)CC1` [Example 19, Methyl (1-((S)-3-(((S)-1-(cyclopropylamino)-6,6-difluoro-1,2-dioxoheptan-3-yl)carbamoyl)-2-azaspiro[4.5]decane-2-carbonyl)cyclopropyl) carbamate], the IC50 was 497 nM.
Next, `COC(=O)N[C@H](C(=O)N1CCC2(CC2)C[C@H]1C(=O)N[C@@H](CCC(C)(F)F)C(=O)C(N)=O)C(C)(C)C` [Example 20, Methyl ((S)-1-((S)-5-(((S)-1-amino-6,6-difluoro-1,2-dioxoheptan-3-yl)carbamoyl)-6-azaspiro[2.5]octan-6-yl)-3,3-dimethyl-1-oxobutan-2-yl)carbamate]: 7.4 nM; `CNC(=O)C(=O)[C@H](CCC(C)(F)F)NC(=O)[C@@H]1CC2(CCN1C(=O)[C@@H](NC(=O)OC)C(C)(C)C)CC2` [Example 21, Methyl ((S)-1-((S)-5-(((S)-6,6-difluoro-1-(methylamino)-1,2-dioxoheptan-3-yl)carbamoyl)-6-azaspiro[2.5]octan-6-yl)-3,3-dimethyl-1-oxobutan-2-yl)carbamate]: 6.5 nM.
As to `CNC(=O)C(=O)[C@H](CCC(C)(F)F)NC(=O)[C@@H]1C[C@H](C(F)(F)F)CCN1C(=O)[C@@H](NC(=O)OC)C(C)(C)C` [Example 22, Methyl ((S)-1-((2S,4R)-2-(((S)-6,6-difluoro-1-(methylamino)-1,2-dioxoheptan-3-yl)carbamoyl)-4-(trifluoromethyl)piperidin-1-yl)-3,3-dimethyl-1-oxobutan-2-yl)carbamate], the IC50 is 10 nM.
`COC(=O)N[C@H](C(=O)N1C[C@@H]2CC(C)(C)[C@@H]2[C@H]1C(=O)N[C@@H](CCC(C)(F)F)C(=O)C(=O)NC1CC1)C(C)(C)C` [Example 25, Methyl ((S)-1-((1R,2S,5R)-2-(((S)-1-(cyclopropylamino)-6,6-difluoro-1,2-dioxoheptan-3-yl)carbamoyl)-7,7-dimethyl-3-azabicyclo[3.2.0]heptan-3-yl)-3,3-dimethyl-1-oxobutan-2-yl)carbamate]: the IC50 was determined as 8.7 nM.
In the case of `COC(=O)N[C@H](C(=O)N1C[C@@H]2CCCC[C@@H]2C[C@H]1C(=O)N[C@@H](CCC(C)(F)F)C(=O)C(=O)NC1CC1)C(C)(C)C` [Example 26, Methyl ((S)-1-((3S,4aR,8aR)-3-(((S)-1-(cyclopropylamino)-6,6-difluoro-1,2-dioxoheptan-3-yl)carbamoyl)octahydroiso-quinolin-2(1H)-yl)-3,3-dimethyl-1-oxobutan-2-yl)carbamate], the concentration for half-maximal inhibition (IC50) worked out at 22 nM.
Consider `CNC(=O)C(=O)[C@H](CCC(C)(F)F)NC(=O)[C@@H]1C[C@@H](C(F)(F)F)CN1C(=O)[C@@H](NC(=O)OC)C(C)(C)C` [Example 27, Methyl ((S)-1-((2S,4R)-2-(((S)-6,6-difluoro-1-(methylamino)-1,2-dioxoheptan-3-yl)carbamoyl)-4-(trifluoromethyl)pyrrolidin-1-yl)-3,3-dimethyl-1-oxobutan-2-yl)carbamate], for which the IC50 came out at 14 nM.
As to `COC(=O)N[C@H](C(=O)N1CCC2(CC2)C[C@H]1C(=O)N[C@@H](CCC(C)(F)F)C(=O)C(=O)NC1CC1)C(C)(C)C` [Example 29, Methyl ((S)-1-((S)-5-(((S)-1-(cyclopropylamino)-6,6-difluoro-1,2-dioxoheptan-3-yl)carbamoyl)-6-azaspiro[2.5]octan-6-yl)-3,3-dimethyl-1-oxobutan-2-yl)carbamate], the IC50 stood at 7.7 nM.
Turning to `COC(=O)N[C@H](C(=O)N1C[C@@H]2CCC[C@@H]2[C@H]1C(=O)N[C@@H](CCC(C)(F)F)C(=O)C(=O)NC1CC1)C(C)(C)C` [Example 31, Methyl ((S)-1-((1S,3aR,6aS)-1-(((S)-1-(cyclopropylamino)-6,6-difluoro-1,2-dioxoheptan-3-yl)carbamoyl)hexahydrocyclo-penta[c]pyrrol-2(1H)-yl)-3,3-dimethyl-1-oxobutan-2-yl)carbamate], the 50% inhibitory concentration (IC50) is 10 nM.
On to `COC(=O)N[C@H](C(=O)N1C[C@H]2[C@H](CCC2(F)F)[C@H]1C(=O)N[C@@H](CCC(C)(F)F)C(=O)C(=O)NC1CC1)C(C)(C)C` [Example 33, Methyl ((S)-1-((1S,3aR,6aS)-1-(((S)-1-(cyclopropylamino)-6,6-difluoro-1,2-dioxoheptan-3-yl)carbamoyl)-4,4-difluorohexahydrocyclopenta[c]pyrrol-2(1H)-yl)-3,3-dimethyl-1-oxobutan-2-yl)carbamate], for which the IC50 was 9.7 nM.
On to `CNC(=O)C(=O)[C@H](CCC(C)(F)F)NC(=O)[C@@H]1[C@H]2CCC(F)(F)[C@H]2CN1C(=O)[C@@H](NC(=O)OC)C(C)(C)C` [Example 35, Methyl ((S)-1-((1S,3aR,6aS)-1-(((S)-6,6-difluoro-1-(methylamino)-1,2-dioxoheptan-3-yl)carbamoyl)-4,4-difluorohexahydrocyclopenta[c]pyrrol-2(1H)-yl)-3,3-dimethyl-1-oxobutan-2-yl)carbamate], for which the IC50 was 8.2 nM.
With `COC(=O)N[C@H](C(=O)N1C[C@H]2[C@@H]([C@H]1C(=O)N[C@@H](CCC(C)(F)F)C(=O)C(=O)NC1CC1)C(C)(C)C2(C)C)C(C)(C)C` [Example 36, Methyl ((S)-1-((1R,2S,5S)-2-(((S)-1-(cyclopropylamino)-6,6-difluoro-1,2-dioxoheptan-3-yl)carbamoyl)-6,6,7,7-tetramethyl-3-azabicyclo[3.2.0]heptan-3-yl)-3,3-dimethyl-1-oxobutan-2-yl)carbamate], the IC50 stood at 8.2 nM.
As to `COC(=O)N[C@H](C(=O)N1C[C@H]2[C@@H]([C@H]1C(=O)N[C@@H](CCC(C)(F)F)C(=O)C(=O)NC1CC1)C21CCCC1)C(C)(C)C` [Example 38, Methyl ((S)-1-((1R,2S,5S)-2-(((S)-1-(cyclopropylamino)-6,6-difluoro-1,2-dioxoheptan-3-yl)carbamoyl)-3-azaspiro[bicyclo[3.1.0]hexane-6,1′-cyclopentan]-3-yl)-3,3-dimethyl-1-oxobutan-2-yl)carbamate], the IC50 is 9.7 nM.
With `CNC(=O)C(=O)[C@H](CCC(C)(F)F)NC(=O)[C@@H]1[C@@H]2[C@H](CN1C(=O)[C@@H](NC(=O)OC)C(C)(C)C)C2(C)C` [Example 39, Methyl ((S)-1-((1R,2S,5S)-2-(((S)-6,6-difluoro-1-(methylamino)-1,2-dioxoheptan-3-yl)carbamoyl)-6,6-dimethyl-3-azabicyclo[3.1.0]hexan-3-yl)-3,3-dimethyl-1-oxobutan-2-yl)carbamate], the half-inhibitory concentration (IC50) came out at 12 nM.
Next, `CNC(=O)C(=O)[C@H](CCC(C)(F)F)NC(=O)[C@@H]1[C@@H]2[C@H](CN1C(=O)[C@@H](NC(=O)OC)C(C)(C)C)C21CCOCC1` [Example 40, Methyl ((S)-1-((1R,2S,5S)-2-(((S)-6,6-difluoro-1-(methylamino)-1,2-dioxoheptan-3-yl)carbamoyl)tetrahydro-3-azaspiro[bicyclo[3.1.0]hexane-6,4′-pyran]-3-yl)-3,3-dimethyl-1-oxobutan-2-yl)carbamate]: 12 nM.
For `COC(=O)N[C@H](C(=O)N1C[C@H]2[C@@H]([C@H]1C(=O)N[C@@H](CCC(C)(F)F)C(=O)C(N)=O)C(C)(C)C2(C)C)C(C)(C)C` [Example 42, Methyl ((S)-1-((1R,2S,5S)-2-(((S)-1-amino-6,6-difluoro-1,2-dioxoheptan-3-yl)carbamoyl)-6,6,7,7-tetramethyl-3-azabicyclo[3.2.0]heptan-3-yl)-3,3-dimethyl-1-oxobutan-2-yl)carbamate], the IC50 turned out to be 22 nM.
